The values below are quoted from earlier work in patent US20200390743A1, “Methods and Compositions For Improving Outcomes of Cancer Patients” (Reven IP HoldCo LLC, priority 2019, published 2020).

For data set [1] the following is noted: rats, 100 mg/kg body weight daily.
For data set [2] the following is noted: 241 osteoporotic women.

Structures are written as SMILES.

`CC(C)=CCC/C(C)=C/CC/C(C)=C/CC/C(C)=C/CC1=C(C)C(=O)c2ccccc2C1=O` [Vitamin K2]: the “calcium in kidneys and aorta induced by megadose of synthetic vitamin D” value in data set [1] is given as “inhibited the increase in calcium”. Besides, the “total cholesterol levels, lipid peroxidation, ester cholesterol deposition in the aorta and factor X activity in plasma” value (compared to the control group) is on record as “reduce”. Moreover, where the note is “rabbits, 1-10 mg/kg daily for 10 weeks”, the “atherosclerotic plaque progression in the aorta and pulmonary arteries” value is “inhibited the atherosclerotic plaque progression”. In data set [2] (45 mg/day vitamin K2 and 150 mg elemental calcium, two years, 30% in control group), the fracture incidence is recorded as 10%. Further, the “lumbar bone mineral density” value in data set [2] (45 mg/day, after two years) is “maintain”.
